Laboratory results from patent US10517889B2, “Modulators of SMAD7 expression” (Ionis Pharmaceuticals, Inc., priority 2017, dated 2019).
Strand notation (5' to 3'): a small letter for the sugar, then the base; units joined by * are phosphorothioate-linked, units joined directly phosphodiester-linked; [ ] holds rarer units or linkages, { } end groups; capitals alone tell only the bases. e = 2'-O-(2-methoxyethyl) (MOE); [5mC] = 5-methylcytosine; d = 2'-deoxy (DNA)

system: human SMAD7 mRNA; test: Antisense inhibition of human SMAD7 mRNA expression in Hep3B cells by 5-10-5 MOE gapmers, single concentration, electroporation, RT-PCR (Example 1, Study 1 and 2); type: cell-based; conditions: Study 2, electroporation with 15,000 nM antisense oligonucleotide, 5-10-5 MOE gapmers targeting SEQ ID NO: 1 and 2
Method: Antisense oligonucleotides were designed to target human SMAD7 mRNA and were tested for their effects on SMAD7 mRNA expression in vitro. Cultured Hep3B cells at a density of 20,000 cells per well were transfected using electroporation with antisense oligonucleotide ION 483663 (a 5-10-5 MOE gapmer), the sequence of which overlaps with ION 28453 (a 4-10-4 MOE gapmer) was included in these assays for comparison. ION 28453 has been previously disclosed in U.S. Pat. No. 6,159,697). After a treatment period of approximately 24 hours, RNA was isolated from the cells and SMAD7 mRNA levels were measured by quantitative real-time PCR. Primer probe set RTS5062 (forward sequence […], designated herein as SEQ ID NO: 11; reverse sequence […], designated herein as SEQ ID NO: 12; probe sequence […], designated herein as SEQ ID NO: 13) was used to measure human SMAD7 mRNA levels. SMAD7 mRNA levels were adjusted according to total RNA content, as measured by RIBOGREEN®. Results are presented as percent inhibition of SMAD7 mRNA expression, relative to untreated control cells.
The newly designed chimeric antisense oligonucleotides in the Tables below were designed as 5-10-5 MOE gapmers. The gapmers are 20 nucleosides in length, wherein the central gap segment comprises of ten 2′-deoxynucleosides and is flanked by wing segments on the 5′ direction and the 3′ direction comprising five nucleosides each. Each nucleoside in the 5′ wing segment and each nucleoside in the 3′ wing segment has a 2′-MOE modification. The internucleoside linkages throughout each gapmer are phosphorothioate (P═S) linkages. All cytosine residues throughout each gapmer are 5-methylcytosines.
“Start site” indicates the 5′-most nucleoside to which the gapmer is targeted in the human gene sequence. “Stop site” indicates the 3′-most nucleoside to which the gapmer is targeted human gene sequence.
Cultured Hep3B cells at a density of 20,000 cells per well were transfected using electroporation with 5,000 nM antisense oligonucleotide.
Cultured Hep3B cells at a density of 20,000 cells per well were transfected using electroporation with 15,000 nM antisense oligonucleotide. The antisense oligonucleotides were tested in a series of experiments that had similar culture conditions as described below.
Some of the oligonucleotides presented were complementary to SMAD7 mRNA sequences RefSeqNo. NM_001190821.1 (designated herein as SEQ ID NO: 3) or RefSeqNo. NM_001190822.1 (designated herein as SEQ ID NO: 4), and are presented in a separate table shown below.

| Substance | % inhibition of SMAD7 mRNA expression [%] | % Inhibition [%] |
| --- | --- | --- |
| 771628 (antisense e[5mC]*e[5mC]*eA*eG*eG*dG*dA*d[5mC]*dA*dT*d[5mC]*d[5mC]*d[5mC]*d[5mC]*dG*e[5mC]*eT*eT*eG*e[5mC]) [compound 771628] | 12 |  |
| 771740 (antisense eG*e[5mC]*e[5mC]*eA*e[5mC]*dT*d[5mC]*d[5mC]*dT*dG*dA*d[5mC]*dT*d[5mC]*dA*e[5mC]*eG*e[5mC]*eA*eA) [compound 771740] |  | 20 |
| 771582 (antisense e[5mC]*eT*eG*eG*e[5mC]*dA*dG*d[5mC]*dT*dG*d[5mC]*dT*dG*dG*dG*eA*e[5mC]*e[5mC]*e[5mC]*e[5mC]) [compound 771582] | 37 |  |
| 771919 (antisense e[5mC]*eA*eA*eT*eG*dG*d[5mC]*dA*d[5mC]*dA*dG*dG*dG*dT*dG*eA*e[5mC]*e[5mC]*eA*eG) [compound 771919] |  | 29 |
| 771375 (antisense e[5mC]*eT*eA*eA*eA*d[5mC]*dA*dG*d[5mC]*dA*dT*dG*dA*dA*dA*eG*eA*e[5mC]*eA*eA) [compound 771375] |  | 4 |
| 771511 (antisense eT*eT*eT*eG*eA*dA*dG*dT*dG*dT*dG*dG*d[5mC]*d[5mC]*dT*eG*e[5mC]*eT*e[5mC]*eA) [compound 771511] | 31 |  |
| 771508 (antisense e[5mC]*e[5mC]*eT*eG*e[5mC]*dT*d[5mC]*dA*dG*d[5mC]*dT*d[5mC]*dA*d[5mC]*dG*e[5mC]*eT*e[5mC]*eT*eG) [compound 771508] | 8 |  |
| 771772 (antisense eT*e[5mC]*e[5mC]*eT*e[5mC]*dA*dG*dG*dA*dA*d[5mC]*dA*dA*d[5mC]*dA*eA*eT*eG*e[5mC]*eT) [compound 771772] |  | 27 |
| 771942 (antisense eG*eT*e[5mC]*eG*eG*dT*d[5mC]*dA*dG*dG*dG*d[5mC]*d[5mC]*dT*dT*eG*e[5mC]*e[5mC]*e[5mC]*eT) [compound 771942] |  | 11 |
| 771504 (antisense e[5mC]*eA*eG*e[5mC]*eT*d[5mC]*dA*d[5mC]*dG*d[5mC]*dT*d[5mC]*dT*dG*dT*e[5mC]*e[5mC]*e[5mC]*e[5mC]*eT) [compound 771504] | 48 |  |
| 771398 (antisense eG*eG*e[5mC]*eA*eG*dG*dA*dG*d[5mC]*dG*dG*d[5mC]*dG*dG*d[5mC]*eG*eG*e[5mC]*e[5mC]*e[5mC]) [compound 771398] |  | 48 |
| 771750 (antisense eG*eG*eA*e[5mC]*eA*dA*d[5mC]*dT*dT*dT*dT*d[5mC]*dA*dA*dG*eA*eA*e[5mC]*eT*e[5mC]) [compound 771750] |  | 29 |
| 771943 (antisense eG*eT*eA*eT*eT*dT*dG*dT*dT*dA*dA*d[5mC]*dA*dA*dA*eA*eA*eT*eG*eG) [compound 771943] |  | 0 |
| 771614 (antisense eG*eT*eT*eT*eT*d[5mC]*dT*dA*dA*dG*dT*d[5mC]*d[5mC]*dG*dG*eG*eA*eA*eA*eA) [compound 771614] | 25 |  |
| 771501 (antisense eG*e[5mC]*eA*e[5mC]*eG*d[5mC]*dG*dG*d[5mC]*dT*dA*d[5mC]*d[5mC]*dG*dG*e[5mC]*eT*eG*eT*eT) [compound 771501] | 16 |  |
| 771796 (antisense eG*eT*eT*eT*eG*d[5mC]*dG*d[5mC]*dA*d[5mC]*dG*dG*dG*dA*dT*eT*eG*eT*e[5mC]*eT) [compound 771796] |  | 16 |
| 771686 (antisense eG*eT*eT*eT*eA*dT*d[5mC]*dT*dT*dT*dT*dT*dT*dA*dA*eT*eT*eT*eG*eG) [compound 771686] | 0 |  |
| 771524 (antisense eT*eT*eG*e[5mC]*eA*dT*dG*dA*dA*dA*dA*dG*d[5mC]*dA*dA*eG*e[5mC]*eA*e[5mC]*eT) [compound 771524] | 19 |  |
| 771895 (antisense eA*eT*eT*eT*eG*d[5mC]*dA*dA*d[5mC]*dA*dA*dT*dA*dA*dA*eA*e[5mC]*eA*eA*eA) [compound 771895] |  | 0 |
| 771846 (antisense e[5mC]*eA*eT*eA*eT*dT*dT*dG*d[5mC]*dT*d[5mC]*d[5mC]*dA*dT*dA*eA*eA*e[5mC]*eA*eA) [compound 771846] |  | 5 |

same assay, conditions: electroporation with 15,000 nM antisense oligonucleotide (Study 2), 5-10-5 MOE gapmers targeting SEQ ID NO: 1 and 2

| Substance | % Inhibition of SMAD7 mRNA [%] | % inhibition of SMAD7 mRNA expression [%] |
| --- | --- | --- |
| 771648 (antisense e[5mC]*eA*eT*eA*e[5mC]*dG*dA*dG*dT*dG*dT*dA*dT*dG*dA*eG*eT*eT*eG*eT) [compound 771648] | 17 | 0 |
| 771616 (antisense eT*eG*e[5mC]*eT*eG*dA*dG*d[5mC]*dT*dG*dG*dT*dT*dT*dT*e[5mC]*eT*eA*eA*eG) [compound 771616] | 33 | 0 |
| 771736 (antisense eT*eG*e[5mC]*e[5mC]*eA*dG*dA*dT*d[5mC]*dT*d[5mC]*dA*dG*dG*dT*e[5mC]*eA*eA*eG*eA) [compound 771736] | 34 |  |
| 771433 (eT*e[5mC]*e[5mC]*eT*eT*d[5mC]*dA*dG*dT*dT*dT*d[5mC]*dT*dT*dG*eA*eG*e[5mC]*eA*e[5mC]; antisense) [compound 771433] | 28 |  |

same assay, conditions: electroporation, 5,000 nM, approximately 24 hours, relative to untreated control cells, gapmers targeting SEQ ID NO: 1 and 2

| Substance | % inhibition of SMAD7 mRNA expression [%] |
| --- | --- |
| 771398 (antisense eG*eG*e[5mC]*eA*eG*dG*dA*dG*d[5mC]*dG*dG*d[5mC]*dG*dG*d[5mC]*eG*eG*e[5mC]*e[5mC]*e[5mC]) [compound 771398] | 53 |

same assay, conditions: electroporation, 15,000 nM antisense oligonucleotide (Study 2), 5-10-5 MOE gapmers targeting SEQ ID NO: 1 and 2

| Substance | % inhibition of SMAD7 mRNA expression [%] |
| --- | --- |
| 771554 (antisense eT*eT*eT*eG*eG*dT*dG*dG*dT*dG*d[5mC]*dT*dT*dG*dG*eA*eT*eT*eT*e[5mC]) [compound 771554] | 20 |
| 771365 (antisense eA*eT*eT*eA*eT*dT*dA*dA*dT*dG*dG*dT*d[5mC]*dT*dG*e[5mC]*eT*e[5mC]*eA*eG) [compound 771365] | 5 |
| 771349 (antisense eA*e[5mC]*eT*e[5mC]*e[5mC]*dA*dA*dA*dG*dG*dT*dG*d[5mC]*dG*d[5mC]*eG*eG*e[5mC]*e[5mC]*eA) [compound 771349] | 26 |
| 771810 (antisense eG*eG*e[5mC]*eA*e[5mC]*dT*dG*d[5mC]*dA*dG*dA*dA*dG*dA*dG*eG*e[5mC]*eG*eG*eG) [compound 771810] | 46 |
| 771577 (antisense eT*eG*e[5mC]*e[5mC]*eT*d[5mC]*dT*dG*d[5mC]*d[5mC]*d[5mC]*d[5mC]*dA*d[5mC]*dT*eG*eA*eG*e[5mC]*eG) [compound 771577] | 21 |
| 771736 (antisense eT*eG*e[5mC]*e[5mC]*eA*dG*dA*dT*d[5mC]*dT*d[5mC]*dA*dG*dG*dT*e[5mC]*eA*eA*eG*eA) [compound 771736] | 0 |
| 771373 (antisense eG*eA*eA*eA*eG*dA*d[5mC]*dA*dA*dA*d[5mC]*d[5mC]*dA*d[5mC]*dA*e[5mC]*eA*eT*eT*e[5mC]) [compound 771373] | 32 |
| 771521 (antisense e[5mC]*eA*eT*eG*eA*dA*dA*dA*dG*d[5mC]*dA*dA*dG*d[5mC]*dA*e[5mC]*eT*e[5mC]*eA*eG) [compound 771521] | 33 |
| 771545 (antisense e[5mC]*e[5mC]*eA*eA*eA*dA*dA*dA*dA*d[5mC]*d[5mC]*d[5mC]*d[5mC]*d[5mC]*dA*eA*e[5mC]*eA*eA*eT) [compound 771545] | 21 |
| 771898 (antisense eG*eG*eT*eG*eT*dG*dA*dG*d[5mC]*dT*dG*dT*dG*dG*dA*e[5mC]*eA*e[5mC]*eA*eG) [compound 771898] | 27 |
| 771433 (eT*e[5mC]*e[5mC]*eT*eT*d[5mC]*dA*dG*dT*dT*dT*d[5mC]*dT*dT*dG*eA*eG*e[5mC]*eA*e[5mC]; antisense) [compound 771433] | 0 |

same assay, conditions: electroporation, 15,000 nM, approximately 24 hours, relative to untreated control cells, gapmers targeting SEQ ID NO: 1 and 2

| Substance | % inhibition of SMAD7 mRNA expression [%] |
| --- | --- |
| 771677 (antisense eT*eT*eT*e[5mC]*eT*dT*dG*dT*dT*dT*dA*dT*dA*d[5mC]*dA*e[5mC]*eA*eT*eT*eG) [compound 771677] | 21 |
| 771406 (antisense eG*eA*eG*e[5mC]*eG*dA*dA*d[5mC]*dA*dT*dG*dA*d[5mC]*d[5mC]*dT*e[5mC]*e[5mC]*eG*e[5mC]*eA) [compound 771406] | 55 |
| 771368 (antisense e[5mC]*eG*eG*e[5mC]*e[5mC]*dT*dT*dG*dA*dT*dG*d[5mC]*dT*dG*dA*eT*eT*eA*eT*eT) [compound 771368] | 27 |
| 771478 (antisense e[5mC]*eA*e[5mC]*e[5mC]*eT*dT*dG*dT*dG*dT*dA*d[5mC]*d[5mC]*dA*dA*e[5mC]*eA*eG*e[5mC]*eG) [compound 771478] | 53 |
